Source: patent US8383806B2, “Method of reversing carboplatin resistance by inhibition of HGFIN” (University of Medicine and Dentistry of New Jersey, priority 2000, dated 2013)

Key:
[1] = system: HGFIN mRNA in HL-60; test: Northern analysis of HGFIN mRNA in differentiated HL-60; type: cell-based; details: HL-60 differentiated to monocytes (TPA) or granulocytes (DMSO)
Protocol: (§1) Cell Differentiation. Cell differentiation was performed with a myelomonocytic cell line, HL-60, or bone marrow mononuclear cells (BMNC). HL-60 cells were chemically differentiated with TPA and DMSO for monocytes and granulocytes respectively (Miura, et al. (2000) supra; Hegde, et al. (1999) Blood 94:1578-1589). BMNC were isolated from bone marrow aspirate of healthy donors using FICOLL HYPAQUE density gradient.
Northern Analysis. Northern analysis for steady state HGFIN mRNA was performed as described (Rameshwar, et al. (1997) J. Immunol. 158:3417-3424). Total RNA was extracted from the experimental cells and 10 μg from each was separated in 1.2% agarose. RNA was transferred to nylon membranes (S & S NYTRAN, Keene, N.H.) and then hybridized with [α-^32P]-dATP-labeled cDNA probes specific for HGFIN or Id2. Membranes were stripped and then reprobed with cDNA for 18S rRNA. Probes were randomly labeled with [α-^32P]-dATP, 3000 Ci/mM, (Dupont/NEN, Boston, Mass.) using the PRIME-IT II random primer kit (Stratagene). […]
HGFIN mRNA was studied in differentiated and undifferentiated HL-60 cells to determine if the expression of this gene was limited to normal bone marrow progenitors. […] Similar to normal progenitors, HGFIN mRNA was detected in differentiated HL-60. […]

[2] = system: Oct4 breast cancer cells; test: Carboplatin treatment of tumors from Oct4 breast cancer cells in mice; type: in vivo, athymic BALB/c mice
Protocol: As discussed above, female athymic BALB/c mice (4 weeks) were obtained from Harlan Laboratories (Somerville, N.J.) and housed in a laminar flow hood at an AAALAC-accredited facility. The use of mice was approved by the Institutional Animal Care and Use Committee, New Jersey Medical School (Newark, N.J.).
Mice were inoculated with Oct4 cells where HGFIN expression was knocked down with siRNA. The cells were injected in a total volume of 0.2 mL subcutaneously in the dorsal flanks. Tumors were monitored daily and measured in two dimensions with a caliper and volume was calculated using the formula V=πr^2h, where r=radius and h=height. Animal were injected with carboplatin (50 mg/kg) on day 0 and day 3 of the test period. Tumors were palpated and tumor volume was measured every other day for two weeks (i.e., days 0, 2, 4, 6, 8, 10, 12 and 14).

[3] = system: HGFIN mRNA in bone marrow stroma; test: Northern analysis of HGFIN mRNA in stimulated bone marrow stroma; type: cell-based, human; details: bone marrow stroma vs unstimulated
Protocol: (§2) Cell Stimulation. Peripheral blood mononuclear cells (PBMC) were resuspended in RPMI 1640 containing 2% FCS at 10^6/ml. Cell suspension, 10 ml, was stimulated with 1 μg/ml of LPS. bone marrow stroma was stimulated in sera-free α-MEM (Sigma) with the following: 10 μg/ml SCF, 5 ng/ml IL-11, 5 U/ml […], 5 ng/ml […], 25 ng/ml NGF and […]. Dose-response curves with slot blots for HGFIN mRNA determined the optimal concentration of each stimulus. During stromal cell stimulation, culture media were supplemented with insulin-transferring-selenium-A (Life Technologies, Grand Island, N.Y.). In both types of cells, controls included parallel cultures in similar media. At 8 hours and 16 hours, total RNA was extracted from each experimental point and control and then analyzed by northern analyses for HGFIN mRNA.
(§3) Northern Analysis. Northern analysis for steady state HGFIN mRNA was performed as described (Rameshwar, et al. (1997) J. Immunol. 158:3417-3424). Total RNA was extracted from the experimental cells and 10 μg from each was separated in 1.2% agarose. RNA was transferred to nylon membranes (S & S NYTRAN, Keene, N.H.) and then hybridized with [α-^32P]-dATP-labeled cDNA probes specific for HGFIN or Id2. Membranes were stripped and then reprobed with cDNA for 18S rRNA. Probes were randomly labeled with [α-^32P]-dATP, 3000 Ci/mM, (Dupont/NEN, Boston, Mass.) using the PRIME-IT II random primer kit (Stratagene). The membrane was placed in a PHOSPHOIMAGER cassette (Molecular Dynamics, Sunnyvale, Calif.) and then scanned at different times beginning at 6 hours to 24 hours on a PHOSPHOIMAGER (Molecular Dynamics). Negative results were not attributed to the lack of total RNA on the membrane since each was hybridized with a cDNA probe for 18S rRNA.
The mesenchymal/stromal cells of the bone marrow produce most of the necessary soluble regulators that modulate bone marrow organ functions (Muller-Sieburg & Deryugina (1995) supra). Since HGFIN expression was altered in activated PBMC, the next set of studies examined the role of HGFIN in activated bone marrow stroma. The following stimulators were used: cytokines, SCF, IL-11, IL-1(α, β) and IL-6 and a neurotrophic factor, NGF. […] Densitometric scans were normalized with 18S rRNA and the fold (mean±SD) increase over unstimulated stroma was determined. […] However, together, the levels of HGFIN mRNA in the cytokine-stimulated cultures were much less than in stroma stimulated with NGF.

[4] = system: HGFIN mRNA in PBMC; test: Northern analysis of HGFIN mRNA in stimulated PBMC; type: cell-based, human; details: 1 μg/ml LPS
Protocol: as §2
Northern Analysis. Northern analysis for steady state HGFIN mRNA was performed as described (Rameshwar, et al. (1997) J. Immunol. 158:3417-3424). Total RNA was extracted from the experimental cells and 10 μg from each was separated in 1.2% agarose. […]
As differentiated immune cells express HGFIN, studies were performed to determining if HGFIN was also expressed when these differentiated cells were activated. […] Consistent with HGFIN expression in PBMC, HGFIN mRNA was detected in the unstimulated PBMC.

[5] = system: HGFIN mRNA in BMNC; test: Northern analysis of HGFIN mRNA in BMNC cultured with M-CSF or G-CSF; type: cell-based, human
Protocol: as §1
(§4) Further, BMNC cells were differentiated with M-CSF or G-CSF (500 U/ml for each) to monocytes and granulocytes, respectively. Undifferentiated cells were cultured in parallel with only media. Culture media were replaced at two-day intervals until cytochemical staining determined that >90% of the cells were differentiated. At this time, cell differentiation was terminated and the cells analyzed by northern analyses for Id2 and HGFIN mRNA, and by immunoblot for Id2 protein. For HL-60 cultures, cytochemical staining was performed after three days with 100-200 cells. Beginning at day 5, cells from cultures with BMNC were stained and daily thereafter. Neutrophil and monocyte staining were performed with kits specific for 2-naphthyl-acetate esterase and naphthol AS-D chloroacetate esterase, respectively.
as §3
Since the HGFIN cDNA was isolated from bone marrow cell subsets, bone marrow and PB mononuclear cells were screened using northern analyses to study the expression of HGFIN. […] After the cells were >90% differentiated to monocytes and neutrophils, cells were analyzed for the expression of HGFIN mRNA by northern analyses.
To verify that the expression of HGFIN was not due to activation by the two cytokines, northern analyses were performed with BMNC cultured with M-CSF or G-CSF and then analyzed for HGFIN mRNA before the cells were differentiated.

[6] = system: Id2 in BMNC; test: Id2 protein in differentiated BMNC; type: cell-based, human
Protocol: as §4, with “Neutrophil and monocyte staining were performed with kits specific for 2-naphthyl-acetate esterase and naphthol AS-D chloroacetate esterase, respectively.” left out
Western Blots. […] Extracts were centrifuged at 10,000 g for 10 minutes and then determined for total protein concentration using the BIO-RAD Protein Assay kit (BIO-RAD Laboratories, Hercules, Calif.). Extracts (15 Vig) were analyzed by western blot for Id2 protein as described (Rameshwar, et al. (2000) J. Immunol. 165:2271-2277). […] Alk Phos activity was detected with BCIP/NBT substrate System (Kirkeguard & Perry Laboratories, Gaithersburg, Md.). […]
Northern blots were performed in four experiments, each with a different donor. […] However in undifferentiated BMNC (cultured in media alone), Id2 mRNA was detected in each of the four bone marrow donors. […]

[7] = BMNC >90% differentiated to monocytes or neutrophils
[8] = BMNC cultured with cytokine, before the cells were differentiated

Question: With 12-0-tetradecanoylphorbol diester [TPA] as the molecule, how does the “HGFIN mRNA” value [1] read?
Answer: detected

Question: How did the “HGFIN mRNA” value [1] turn out when `C[S+](C)[O-]` [DMSO, dimethylsulfoxide] was run?
Answer: detected

Question: `N.N.O=C([O-])C1(C(=O)[O-])CCC1.[Pt+2]` [carboplatin] was tested. Which “tumor cell volume vs before carboplatin treatment” value ([2]; 50 mg/kg, two weeks after second injection) did it give?
Answer: statistically significant decreases

Question: And the “sensitivity of tumors to carboplatin” value ([2]; HGFIN knocked down with siRNA, 50 mg/kg day 0 and day 3, two weeks after second injection)?
Answer: more sensitive

Question: For IL-6: cytokine, which “HGFIN mRNA induction” value [3] is on record?
Answer: induced

Question: Which “HGFIN mRNA induction” value [3] does the source give for “NGF: nerve growth factor, a neurotrophic factor” here?
Answer: induced

Question: With SCF: Stem cell factor, cytokine as the molecule, how does the “HGFIN mRNA induction” value [3] read?
Answer: induced

Question: For lipopolysaccharide [LPS], which “steady state HGFIN mRNA” value ([4]; 8 hours) is on record?
Answer: no difference

Question: And the “steady state HGFIN mRNA” value ([4]; 16 hours)?
Answer: down-regulated

B1: IL-11: cytokine (protein, UniProt P20809 22-199, looked up)
Interleukin-11: PGPPPGPPRVSPDPRAELDSTVLLTRSLLADTRQLAAQLRDKFPADGDHNLDSLPTLAMSAGALGALQLPGVLTRLRADLLSYLRHVQWLRRAGGSSLKTLEPELGTLQARLDRLLRRLQLLMSRLALPQPPPDPPAPPLAPPSSAWGGIRAAHAILGGLHLTLDWAVRGLLLLKTRL
Question: Which “HGFIN mRNA induction” value [3] does the source give for B1 here?
Answer: induced

B2: G-CSF: granulocyte colony-stimulation factor (protein, UniProt P09919 31-207, looked up)
Granulocyte …: TPLGPASSLPQSFLLKCLEQVRKIQGDGAALQEKLVSECATYKLCHPEELVLLGHSLGIPWAPLSSCPSQALQLAGCLSQLHSGLFLYQGLLQALEGISPELGPTLDTLQLDVADFATTIWQQMEELGMAPALQPTQGAMPAFASAFQRRAGGVLVASHLQSFLEVSYRVLRHLAQP
Question: Which “HGFIN mRNA” value [5, 7] does the source give for B2 here?
Answer: detectable

Question: And the “HGFIN mRNA” value [5, 8]?
Answer: no detectable HGFIN mRNA

Question: What about the “band for Id2 protein” value [6] of the same molecule?
Answer: very light to undetectable

B3: M-CSF: macrophage colony-stimulation factor (protein, UniProt P09603 33-554, looked up)
Macrophage colony-stimulating …: EEVSEYCSHMIGSGHLQSLQRLIDSQMETSCQITFEFVDQEQLKDPVCYLKKAFLLVQDIMEDTMRFRDNTPNAIAIVQLQELSLRLKSCFTKDYEEHDKACVRTFYETPLQLLEKVKNVFNETKNLLDKDWNIFSKNCNNSFAECSSQDVVTKPDCNCLYPKAIPSSDPASVSPHQPLAPSMAPVAGLTWEDSEGTEGSSLLPGEQPLHTVDPGSAKQRPPRSTCQSFEPPETPVVKDSTIGGSPQPRPSVGAFNPGMEDILDSAMGTNWVPEEASGEASEIPVPQGTELSPSRPGGGSMQTEPARPSNFLSASSPLPASAKGQQPADVTGTALPRVGPVRPTGQDWNHTPQKTDHPSALLRDPPEPGSPRISSLRPQGLSNPSTLSAQPQLSRSHSSGSVLPLGELEGRRSTRDRRSPAEPEGGPASEGAARPLPRFNSVPLTDTGHERQSEGSFSPQLQESVFHLLVPSVILVLLAVGGLLFYRWRRRSHQEPQRADSPLEQPEGSPLTQDDRQVELPV
Question: B3 was tested. Which “HGFIN mRNA” value [5, 7] did it give?
Answer: detectable

Question: And the “HGFIN mRNA” value [5, 8]?
Answer: no detectable HGFIN mRNA

Question: What about the “band for Id2 protein” value [6] of the same molecule?
Answer: very light to undetectable
